Source: PubChem BioAssay AID2060348 (Molecular Pharmacology Branch, DTP, NCI, 2025)

Test system: 885724-159-R-J1-PDC spheroids viability
Experiment: Anticancer human tumor 885724-159-R-J1-PDC patient-derived pancreatic adenocarcinoma cell line growth inhibition [TAK]
Conditions: spheroids with HUVEC and MSC; for IC50: curve of first compound; for viability, T/C: stronger effect = lower value; active = viability on the fitted dose curve at most 10% of control; inactive = the rest
Description: Combinatorial screen of targeted agents with TAK-243 and ipatasertib in multi-cell type tumor spheroids
A high-throughput screen of multi-cell type tumor spheroids was designed to identify active combinations of targeted small molecules and TAK-243 or ipatasertib. Complex spheroids include a stromal component modeled by human endothelial cells (HUVEC) and fibroblasts modeled by human mesenchymal stem cells (MSCs). The concentration ranges selected for each drug and investigational agent were based upon clinically achievable concentrations if the clinical Cmax of the agent was known.
Compounds. The drugs and investigational agents: TAK-243 (785004), ipatasertib (767898), everolimus (733504), selumetinib (741078), bortezomib (756655), trametinib (758246), ixazomib (758254), vemurafenib (761431), dabrafenib (764134), sapanisertib (764658), alpelisib (765974), and copanlisib (816437), were obtained from the National Cancer Institute (NCI) Developmental Therapeutics Program Chemical Repository. The FDA-approved anticancer drug set is available from the NCI Developmental Therapeutics Program. […] The stock solutions were prepared in dimethyl sulfoxide (DMSO, Sigma-Aldrich, St. Louis, MO, cat. D2650) at 800-fold the tested concentration and stored at -70 degrees C prior to their use. All drugs and investigational agents were tested over a range starting from a high concentration at or near the clinical Cmax and decreasing in half-log increments. If the clinical Cmax for an agent had not been determined, the highest concentration tested was 10 microM.
NCI60 Cell Culture. NCI60 cell lines were obtained from the NCI Developmental Therapeutics Program Tumor Repository. For each lot of cells, the Repository performed Applied Biosystems AmpFLSTR Identifiler testing with PCR amplification to confirm consistency with the published Identifier STR profile for each cell line. Cells were kept in continuous culture for no more than 20 passages. The optimal seeding densities for each of the cell lines at each time point assessed were determined prior to performing the concentration response studies. Briefly, the NCI60 human tumor lines were grown as monolayers in RPMI 1640 medium supplemented with 10% FBS and 2 mmol/L L-glutamine.
An additional 2 lines were from the NCI60 cell line panel including melanomas, MALME-3M and SK-MEL-2. Pooled donor human umbilical vein endothelial cells (HUVEC, Lonza, cat. CC-2519) and human mesenchymal stem cells (hMSC, Lonza, cat. PT-2501) were purchased from Lonza (Walkersville, MD).
PDMR cell lines were grown in complete medium (DC medium): Dulbecco's modified Eagle's medium (DMEM)/F12 supplemented with 5% fetal bovine serum (FBS), 2 mM L-glutamine, 100 U/mL penicillin and 100 µg/ml streptomycin, 0.4 µg/ml hydrocortisone, 10 ng/ml epidermal growth factor (EGF) recombinant human protein, 24 µg/mL adenine, and 0.1 mg/mL primocin. During culture from frozen stock vials, PDMR cells were cultured in the same medium containing 10 µM Y-27632 (see Table 3). The PDCs were cultured in complete DMEM/F12 media without 10 microM Y-27632 dihydrochloride for at least two passages prior to the screen. The pooled donor HUVEC and hMSC were cultured in endothelial cell growth medium 2 (PromoCell, Heidelberg, Germany, cat. C-22011) and mesenchymal stem cell growth medium 2 (PromoCell, cat. C-28009), respectively. For all experiments, HUVEC and hMSC were used at passages </=5.
For the pre-screen, cell seeding densities were determined from a titration spanning the range from 5,000 to 313 cells per well. The mct-spheroids including 60% malignant cells, 25% HUVEC and 15% MSC dispensed as a mixture into U-bottom Ultra-Low Attachment 384-well plates (Corning, NY)
High-throughput Drug Combination Screening.
Prior to their inoculation into 384-well plates, malignant cells, HUVEC, and hMSC were removed from T flasks using TrypLE express (Thermo Fisher Scientific, cat. 12605036) and harvested by centrifugation for 5 min at 233 x g. […]
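Note: spheroids exposed to drugs for seven days.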

COC1CC2CCC(C)C(O)(O2)C(=O)C(=O)N2CCCCC2C(=O)OC(C(C)CC2CCC(OCCO)C(OC)C2)CC(=O)C(C)C=C(C)C(O)C(OC)C(=O)C(C)CC(C)C=CC=CC=C1C (stereo not given) + CC(C)NCC(C(=O)N1CCN(c2ncnc3c2C(C)CC3O)CC1)c1ccc(Cl)cc1
inactive: viability, T/C (second compound 0.3 µM, first compound 0.000316 µM) 68.2% | viability, T/C (second compound 0.3 µM, first compound 0.001 µM) 62.3% | viability, T/C (second compound 0.3 µM, first compound 0.00316 µM) 62.3% | viability, T/C (second compound 0.3 µM, first compound 0.01 µM) 58.5% | viability, T/C (second compound 0.3 µM, first compound 0.0316 µM) 57.4% | viability, T/C (second compound 0.3 µM, first compound 0.1 µM) 56.3% | viability, T/C (second compound 0.949 µM, first compound 0.000316 µM) 63.1% | viability, T/C (second compound 0.949 µM, first compound 0.001 µM) 58.5% | viability, T/C (second compound 0.949 µM, first compound 0.00316 µM) 56.4% | viability, T/C (second compound 0.949 µM, first compound 0.01 µM) 59.3% | viability, T/C (second compound 0.949 µM, first compound 0.0316 µM) 58.4% | viability, T/C (second compound 0.949 µM, first compound 0.1 µM) 61.2% | viability, T/C (second compound 3 µM, first compound 0.000316 µM) 60.5% | viability, T/C (second compound 3 µM, first compound 0.001 µM) 60.4% | viability, T/C (second compound 3 µM, first compound 0.00316 µM) 53.3% | viability, T/C (second compound 3 µM, first compound 0.01 µM) 50.7% | viability, T/C (second compound 3 µM, first compound 0.0316 µM) 52.5% | viability, T/C (second compound 3 µM, first compound 0.1 µM) 46.2% | viability, T/C (second compound 9.49 µM, first compound 0.000316 µM) 48.2% | viability, T/C (second compound 9.49 µM, first compound 0.001 µM) 49.6% | viability, T/C (second compound 9.49 µM, first compound 0.00316 µM) 47.3% | viability, T/C (second compound 9.49 µM, first compound 0.01 µM) 41.4% | viability, T/C (second compound 9.49 µM, first compound 0.0316 µM) 42.5% | viability, T/C (second compound 9.49 µM, first compound 0.1 µM) 39.4% | viability, T/C (second compound 30 µM, first compound 0.000316 µM) 31.3% | viability, T/C (second compound 30 µM, first compound 0.001 µM) 27.5% | viability, T/C (second compound 30 µM, first compound 0.00316 µM) 27.5% | viability, T/C (second compound 30 µM, first compound 0.01 µM) 23.8% | viability, T/C (second compound 30 µM, first compound 0.0316 µM) 29.3% | viability, T/C (second compound 30 µM, first compound 0.1 µM) 25.5%
< 0.316 nM: IC50 (second compound 9.49 µM) | IC50 (second compound 30 µM)
> 100 nM: IC50 (second compound 0.3 µM) | IC50 (second compound 0.949 µM)
28.3 nM: IC50 (second compound 3 µM)

Cn1cnc2c(F)c(Nc3ccc(Br)cc3Cl)c(C(=O)NOCCO)cc21 + CC(C)NCC(C(=O)N1CCN(c2ncnc3c2C(C)CC3O)CC1)c1ccc(Cl)cc1
< 9.49 nM: IC50 (second compound 0.3 µM) | IC50 (second compound 0.949 µM) | IC50 (second compound 3 µM) | IC50 (second compound 9.49 µM) | IC50 (second compound 30 µM)
active: viability, T/C (second compound 3 µM, first compound 3 µM) 7.23% | viability, T/C (second compound 9.49 µM, first compound 0.949 µM) 9.53% | viability, T/C (second compound 9.49 µM, first compound 3 µM) 4.7% | viability, T/C (second compound 30 µM, first compound 0.0949 µM) 9.15% | viability, T/C (second compound 30 µM, first compound 0.3 µM) 5.41% | viability, T/C (second compound 30 µM, first compound 0.949 µM) 3.69% | viability, T/C (second compound 30 µM, first compound 3 µM) 2.03%
inactive: viability, T/C (second compound 0.3 µM, first compound 0.00949 µM) 49.1% | viability, T/C (second compound 0.3 µM, first compound 0.03 µM) 42.5% | viability, T/C (second compound 0.3 µM, first compound 0.0949 µM) 29.3% | viability, T/C (second compound 0.3 µM, first compound 0.3 µM) 24.9% | viability, T/C (second compound 0.3 µM, first compound 0.949 µM) 18.8% | viability, T/C (second compound 0.3 µM, first compound 3 µM) 14.1% | viability, T/C (second compound 0.949 µM, first compound 0.00949 µM) 45.2% | viability, T/C (second compound 0.949 µM, first compound 0.03 µM) 41.2% | viability, T/C (second compound 0.949 µM, first compound 0.0949 µM) 30.5% | viability, T/C (second compound 0.949 µM, first compound 0.3 µM) 22.6% | viability, T/C (second compound 0.949 µM, first compound 0.949 µM) 16.6% | viability, T/C (second compound 0.949 µM, first compound 3 µM) 10.3% | viability, T/C (second compound 3 µM, first compound 0.00949 µM) 42% | viability, T/C (second compound 3 µM, first compound 0.03 µM) 37.1% | viability, T/C (second compound 3 µM, first compound 0.0949 µM) 27.5% | viability, T/C (second compound 3 µM, first compound 0.3 µM) 18.7% | viability, T/C (second compound 3 µM, first compound 0.949 µM) 12.6% | viability, T/C (second compound 9.49 µM, first compound 0.00949 µM) 36.7% | viability, T/C (second compound 9.49 µM, first compound 0.03 µM) 27.9% | viability, T/C (second compound 9.49 µM, first compound 0.0949 µM) 16.8% | viability, T/C (second compound 9.49 µM, first compound 0.3 µM) 13.7% | viability, T/C (second compound 30 µM, first compound 0.00949 µM) 20.5% | viability, T/C (second compound 30 µM, first compound 0.03 µM) 13.7%
